Experimental data from ChEMBL document CHEMBL1155631, “Cembrane diterpenes from the southern African soft coral Cladiella kashmani” (J Nat Prod, 2000).

system: Artemia salina; experiment: Toxicity against Artemia salina; type: organism-based; conditions: in vivo

First: C/C1=C\C=C(\C(C)C)[C@@H](O)C[C@]2(C)O[C@H]2CC/C(C)=C/CC1
Second: CC(=O)O[C@@H]1/C(C(C)C)=C\C=C(/C)CC/C=C(\C)CC[C@@H]2O[C@]2(C)[C@H]1O [FLACCIDOXIDE]
The LC50 of the first is lower: 50 ppm for the first, 180 ppm for the second.

In the case of `CC(=O)O[C@H]1/C(C(C)C)=C\C=C(/C)CC/C=C(\C)CC[C@@H]2O[C@]2(C)[C@H]1C(C)=O`, the LC50 is reported as 110 ppm.
